Assay results published in patent US20140228312A1, “ANTIBIOTIC COMPOSITION AND ITS USES” (Agency for Science, Technology and Research, priority 2011, published 2014).

Key:
[1] = system: B. cereus; experiment: MIC assay, antibiotic with or without DSF-family molecules; type: cell-based, Bacillus cereus; conditions: for MIC of Gentamicin, Mean: gentamicin alone (MeOH control, no DSF-family molecule)
Experimental: (§1) Minimum inhibitory concentration (MIC) was determined according to the 2003 guidelines of Clinical and Laboratory Standards Institute (CLSI) using 96-well microtiter plates. The two-fold dilution series of antibacterial agents or antibiotics were prepared with distilled water, methanol, or dimethyl sulfoxide (DMSO). Overnight cultures of bacteria were inoculated at an OD600 of 0.025 in Luria-Bertani (LB) broth supplemented with the respective antibiotic in the absence or presence of DSF-family molecules (Table 1). One hundred microliters of inoculated culture were grown in each well at 37° C. with shaking at 150 rpm for 24 hours. MIC was defined as the lowest concentration of antibiotic in which bacterial growth in the well was not measureable by determination of the turbidity at 600 nm.

[2] = system: B. cereus; experiment: Bacterial growth analysis (Bioscreen-C); type: cell-based, Bacillus cereus; conditions: final concentration of 50 μM, no antibiotic
Experimental: (§2) Overnight bacterial cultures grown in LB broth was inoculated in the same medium to an OD600 of 0.025; the medium was supplemented with a respective antibiotic and DSF-family signals were added in a final concentration of 50 μM or otherwise indicated. Three hundred microliters of inoculated culture were grown in each well at 37° C. in a low intensity shaking model using the Bioscreen-C Automated Growth Curves Analysis System (OY Growth Curves AB Ltd, Finland).

[3] = system: P. aeruginosa strain PAO1; experiment: Bacterial growth analysis (Bioscreen-C); type: cell-based, Pseudomonas aeruginosa
Experimental: as §2
P. aeruginosa is a major source of opportunistic infections in both immunocompromised individuals and cystic fibrosis patients (Bodey et al., 1983; Richards et al., 2000). It appeared to be less responsive to DSF than other tested bacterial pathogen in our preliminary MIC assay. We therefore used the Bioscreen-C Automated Growth Curves Analysis System to determine the synergistic effect of DSF with antibiotics. Gentamicin and kanamycin were added to the culture of P. aeruginosa strain PAO1 at a final concentration of 2 nM and 0.2 μM, respectively, in the absence and presence of 50 μM DSF.

[4] = system: M. smegmatis; experiment: MIC assay, antibiotic with or without DSF; type: cell-based, Mycobacterium smegmatis; conditions: DSF 50 μM
Experimental: as §1

[5] = system: S. aureus; experiment: MIC assay, antibiotic with or without DSF; type: cell-based, Staphylococcus aureus; conditions: DSF 50 μM
Experimental: as §1

[6] = system: B. thuringiensis; experiment: MIC assay, antibiotic with or without DSF; type: cell-based, Bacillus thuringiensis; conditions: DSF 50 μM
Experimental: as §1

[7] = system: N. subflava; experiment: MIC assay, antibiotic with or without DSF; type: cell-based, Neisseria subflava; conditions: DSF 50 μM
Experimental: as §1

[8] = 50 μM DSF-family molecule vs MeOH control

CCCCCCCCC/C=C\C(=O)O [Compound C12]
Fold Change of MIC of Ampicillin [1, 8]: 0
Fold Change of MIC of Kanamycin [1, 8]: 4
Fold Change of MIC of Rifampicin [1, 8]: 2.6
Fold change of MIC of Gentamicin [1, 8]: 8
effect on bacterial growth rate [2]: did not affect the bacterial growth rate

CCCCCCC/C=C\C(=O)O [Compound C10]
Fold Change of MIC of Ampicillin [1, 8]: 0
Fold Change of MIC of Kanamycin [1, 8]: 4
Fold Change of MIC of Rifampicin [1, 8]: 2.6
Fold change of MIC of Gentamicin [1, 8]: 2

CCCCC/C=C/C(=O)O [Compound T8]
Fold Change of MIC of Ampicillin [1, 8]: 0
Fold Change of MIC of Kanamycin [1, 8]: 2
Fold Change of MIC of Rifampicin [1, 8]: 0
Fold change of MIC of Gentamicin [1, 8]: 0

CCCCCCCCCCCC/C=C\C(=O)O [Compound C15]
drug adjuvant with ampicillin ([1]; 50 μM DSF-family molecule): best drug adjuvant with ampicillin
Fold Change of MIC of Kanamycin [1, 8]: 32
Fold Change of MIC of Rifampicin [1, 8]: 4
Fold change of MIC of Gentamicin [1, 8]: 128

CCCCC/C=C\C(=O)O [Compound C8]
Fold Change of MIC of Ampicillin [1, 8]: 0
Fold Change of MIC of Kanamycin [1, 8]: 2
Fold Change of MIC of Rifampicin [1, 8]: 2
Fold change of MIC of Gentamicin [1, 8]: 0

CCCCCCCCCCCC(=O)O [Compound S12]
Fold Change of MIC of Ampicillin [1, 8]: 0
Fold Change of MIC of Kanamycin [1, 8]: 8
Fold Change of MIC of Rifampicin [1, 8]: 2
Fold change of MIC of Gentamicin [1, 8]: 4

CCCCCCCC/C=C/C(=O)O [Compound T11]
Fold Change of MIC of Kanamycin [1, 8]: 8
Fold Change of MIC of Rifampicin [1, 8]: 2.6
Fold change of MIC of Gentamicin [1, 8]: 16

NC[C@H]1O[C@H](O[C@H]2[C@H](O)[C@@H](O[C@H]3O[C@H](CO)[C@@H](O)[C@H](N)[C@H]3O)[C@H](N)C[C@@H]2N)[C@H](O)[C@@H](O)[C@@H]1O [Kanamycin, kanamycin, reference compound]
time of recovery of bacterial growth ([3]; kanamycin 0.2 μM alone): 22 hour post inoculation

CCCCCCCC/C=C\C(=O)O [Compound C11]
Fold Change of MIC of Kanamycin [1, 8]: 16
Fold Change of MIC of Rifampicin [1, 8]: 4
Fold change of MIC of Gentamicin [1, 8]: 16

gentamicin [reference compound]
MIC of Gentamicin, Mean [1]: 8 µg/mL
MIC of Gentamicin, Mean ([1]; listed as gentamicin): 8.0 µg/mL
time of recovery of bacterial growth ([3]; gentamicin 2 nM alone): 10 hour post inoculation

CCCCCCCCCCC/C=C/C(=O)O [Compound T14]
synergistic activity with kanamycin ([1]; 50 μM DSF-family molecule): strongest synergistic activity
Fold Change of MIC of Kanamycin [1, 8]: 64
Fold Change of MIC of Rifampicin [1, 8]: 1.3
Fold change of MIC of Gentamicin [1, 8]: 128

CC(C)CCCCCCC/C=C\C(=O)O [DSF, cis 11-methyl-2-dodecenoic acid]
enhancement of susceptibility to gentamicin [4]: 50%
enhancement of susceptibility to kanamycin [4]: 25%
enhancement of susceptibility to trimethoprim [4]: 50%
Fold Change of MIC of Kanamycin ([1]; 5 μM DSF vs MeOH): 1.3
Fold change of MIC of Gentamicin ([1]; 5 μM DSF vs MeOH): 2
Fold Change of MIC of Kanamycin ([1]; 10 μM DSF vs MeOH): 2
Fold change of MIC of Gentamicin ([1]; 10 μM DSF vs MeOH): 2
Fold Change of MIC of Kanamycin ([1]; 20 μM DSF vs MeOH): 2
Fold change of MIC of Gentamicin ([1]; 20 μM DSF vs MeOH): 5.3
Fold Change of MIC of Kanamycin ([1]; 30 μM DSF vs MeOH): 5.3
Fold change of MIC of Gentamicin ([1]; 30 μM DSF vs MeOH): 8
Fold Change of MIC of Kanamycin ([1]; 40 μM DSF vs MeOH): 5.3
Fold change of MIC of Gentamicin ([1]; 40 μM DSF vs MeOH): 16
Fold Change of MIC of Kanamycin ([1]; 50 μM DSF vs MeOH): 16
Fold change of MIC of Gentamicin ([1]; 50 μM DSF vs MeOH): 16
Fold Change of MIC of Ampicillin [1, 8]: 0
Fold Change of MIC of Kanamycin [1, 8]: 16
Fold Change of MIC of Rifampicin [1, 8]: 2
Fold change of MIC of Gentamicin [1, 8]: 16
reduction of MIC of ampicillin [5]: 50%
reduction of MIC of gentamicin [5]: 50%
reduction of MIC of kanamycin [5]: 50%
decrease of MIC of ampicillin [6]: 75%
decrease of MIC of gentamicin [6]: 93.75%
decrease of MIC of kanamycin [6]: 93.75%
decrease of MIC of rifampicin [6]: 75%
effect on susceptibility to gentamicin ([3]; 50 μM DSF + gentamicin 2 nM): enhanced the susceptibility
delay of bacterial growth ([3]; 50 μM DSF + gentamicin 2 nM vs gentamicin alone): 6 h
effect on susceptibility to kanamycin ([3]; 50 μM DSF + kanamycin 0.2 μM): enhanced the susceptibility
delay of bacterial growth ([3]; 50 μM DSF + kanamycin 0.2 μM vs kanamycin alone): 8 h
effect on growth rate ([3]; 50 μM DSF, no antibiotic): did not affect the growth rate
effect on bacterial growth rate [2]: did not affect the bacterial growth rate
effect on MIC of ampicillin [7]: did not affect
effect on MIC of rifampicin [7]: did not affect
reduction of MIC of gentamicin [7]: about 50%
reduction of MIC of kanamycin [7]: about 50%

CCCCCCCCCC/C=C\C(=O)O [Compound C13]
Fold Change of MIC of Kanamycin ([1]; 5 μM C13 vs MeOH): 2
Fold change of MIC of Gentamicin ([1]; 5 μM C13 vs MeOH): 0
Fold Change of MIC of Kanamycin ([1]; 10 μM C13 vs MeOH): 2
Fold change of MIC of Gentamicin ([1]; 10 μM C13 vs MeOH): 2
Fold Change of MIC of Kanamycin ([1]; 20 μM C13 vs MeOH): 8
Fold change of MIC of Gentamicin ([1]; 20 μM C13 vs MeOH): 4
Fold Change of MIC of Kanamycin ([1]; 30 μM C13 vs MeOH): 8
Fold change of MIC of Gentamicin ([1]; 30 μM C13 vs MeOH): 8
Fold Change of MIC of Kanamycin ([1]; 40 μM C13 vs MeOH): 16
Fold change of MIC of Gentamicin ([1]; 40 μM C13 vs MeOH): 21.3
Fold Change of MIC of Kanamycin ([1]; 50 μM C13 vs MeOH): 16
Fold change of MIC of Gentamicin ([1]; 50 μM C13 vs MeOH): 32
Fold Change of MIC of Ampicillin [1, 8]: 0
Fold Change of MIC of Kanamycin [1, 8]: 16
Fold Change of MIC of Rifampicin [1, 8]: 2.6
Fold change of MIC of Gentamicin [1, 8]: 32
effect on bacterial growth rate [2]: did not affect the bacterial growth rate

CCCCCCCCCCCC/C=C/C(=O)O [Compound T15]
Fold Change of MIC of Ampicillin [1, 8]: 0
Fold Change of MIC of Kanamycin [1, 8]: 2
Fold Change of MIC of Rifampicin [1, 8]: 2
Fold change of MIC of Gentamicin [1, 8]: 0

CCCCCCCCCC/C=C/C(=O)O [Compound T13]
Fold Change of MIC of Ampicillin [1, 8]: 0
Fold Change of MIC of Kanamycin [1, 8]: 5.3
Fold Change of MIC of Rifampicin [1, 8]: 2
Fold change of MIC of Gentamicin [1, 8]: 8

CCCCCCCCCCC/C=C\C(=O)O [Compound C14]
Fold Change of MIC of Ampicillin [1, 8]: 0
Fold Change of MIC of Kanamycin [1, 8]: 32
Fold Change of MIC of Rifampicin [1, 8]: 2
Fold change of MIC of Gentamicin [1, 8]: 32

CCCCCCC/C=C/C(=O)O [Compound T10]
Fold Change of MIC of Ampicillin [1, 8]: 0
Fold Change of MIC of Kanamycin [1, 8]: 4
Fold Change of MIC of Rifampicin [1, 8]: 2
Fold change of MIC of Gentamicin [1, 8]: 2

CCCCCCCCC/C=C/C(=O)O [Compound T12]
Fold Change of MIC of Ampicillin [1, 8]: 0
Fold Change of MIC of Kanamycin [1, 8]: 16
Fold Change of MIC of Rifampicin [1, 8]: 1.3
Fold change of MIC of Gentamicin [1, 8]: 21.3
